From US20030191131A1, “Use of organic compounds” (priority 2002, published 2003) come the findings set out here.

Assay [1] concerns constitutively activated mutant canine KIT (BR and C2 cells). Description: KIT autophosphorylation in BR and C2 cell lysates (anti-P-Tyr Western immunoblot). The assay is classed as cell-based. From the text: Antibodies: A polyclonal rabbit anti-KIT antibody (c-kit Ab-1) was used at a dilution of 1:500 (c-kit Ab-1; Oncogene, Cambridge, Mass.). An anti-phosphotyrosine antibody (PY20) was used at a dilution of 1:1000 (PY20 Transduction Laboratories; Lexington, Ky.). Peroxidase conjugated goat anti-mouse antibody was used at a dilution of 1:5000 and goat anti-rabbit antibody at a dilution of 1:10,000 (Pierce; Rockford, Ill.).
(§1) Cell lines: BR and C2 canine mastocytoma cells lines were obtained from Dr. George Caughey (University of California at San Francisco, San Francisco, Calif.). Both cell lines were maintained in DMEM supplemented with 2% bovine calf, 1 mM L-glutamine, 12.5 mM HEPES (pH 7.5), 0.25 mg/mL Histidine, 1% Penicillin-Streptomycin and 1% fungizone. The BR and C2 cells were derived from canine mast cell tumors and were originally established in long-term culture after initial passaging in immunodeficient mice (DeVinney et al., Am. J. Respir. Cell Mol. Biol., Vol. 3, No. 5, pp. 413-420 (1990); Lazarus et al., Am. J. Physiol., Vol. 251, No. 6, Pt 1, pp. C935-C944 (1986)). The BR cell line has a point mutation (T1752C) resulting in a Leucine to Proline substitution at amino acid 575 (juxtamembrane domain). The C2 cell line has an internal tandem duplication (ITD) of the KIT juxtamembrane region.
Protein lysates: BR and C2 cells were washed ×2 in PBS and then quiesced in Optimem (Gibco-BRL) at 37° C. for approximately 18 hours.
Dermatol., Vol.114, No. 2, pp. 392-394 (2000)).
On the technique in general: A western blot detects proteins with antibodies after separation by electrophoresis.

In assay [2] the test system is cutaneous mast cell tumors. Description: Prospective case series of pet dogs with measurable cutaneous mast cell tumors. The assay is classed as in vivo, dog. Conditions: 25 mg/kg PO QD x 60 days of SALT I. The procedure:
The study patients are pet dogs with measurable and histologically-confirmed mast cell tumors. Cases are limited to those with measurable lesions amenable to biopsy.
Pretreatment evaluation of all cases include physical examination, complete blood count, buffy coat, serum biochemistry, urinalysis, serum bile acids (fasting and post-prandial), documentation of regional lymph node size, abdominal radiographs and abdominal ultrasound. The treatment regimen is 25 mg/kg PO QD×60 days of SALT I.
Treatment is continued in all cases for 60 days unless disease progression is noted. In cases experiencing partial response or complete response ongoing therapy for an additional 60 days may be considered. Cases successfully completing therapy are eligible for repeat entry to study.
The efficacy of COMPOUND I is assessed against measurable cutaneous mast cell tumors, using clinical endpoints. Biological endpoints may be taken from serial biopsies collected from cutaneous tumors and from blood samples available through the treatment course.
Clinical endpoints include response rate of measurable tumors, objective response against measurable tumor, and time to progression of measurable tumor. All adverse side effects will be recorded.
Furthermore, it may be observed that more animals obtaining treatment show Stable Disease (SD), while less treated animals show Progressive Disease (PD). […]

The test system of the next assay is BR or C2 cells. Description: Proliferation of BR or C2 cells (cell lines not separated). The assay is classed as cell-based, canine. The procedure: as §1

Turning to `Cc1ccc(NC(=O)c2ccc(CN3CCN(C)CC3)cc2)cc1Nc1nccc(-c2cccnc2)n1` [COMPOUND I], the “Inhibition of KIT autophosphorylation” value is listed as “Near complete inhibition” in assay [1] (0.1 μM dose, BR or C2 cells); “complete inhibition” in assay [1] (10 and 1.0 μM doses, BR or C2 cells, 90 minutes incubation, no SLF). For the same compound, the Autophosphorylation of c-kit entry in assay [1] (0.001-0.01 μM doses, BR or C2 cells) was “Limited autophosphorylation”. The “Potency on mutated c-kit receptor compared with wild type c-kit receptor” value in assay [1] (BR and C2 cells against literature wild type value) was “more potent inhibitor of this mutated receptor than it is of the wild type c-kit receptor”. Moreover, the “Expression of c-kit protein (membrane reprobed with anti-c-kit antibody)” value in assay [1] (treated BR or C2 cells) is given as “no change in expression of c-kit protein”. Moreover, in assay [2], the “Objective Tumors Responses” value was “are observed”. In the assay on BR or C2 cells (0.001-0.01 μM, 48-72 hours), the Inhibition of proliferation entry was “Partial inhibition”. For the same compound, the “Morphologic observations of inhibitor treated cells” value in the assay on BR or C2 cells (data not shown) is on record as “changes consistent with apoptosis”.
